Laboratory results as given in patent US11814372B2, “Agonists of EPHA and their uses” (CASE WESTERN RESERVE UNIVERSITY, priority 2017, dated 2023).

Target: T1, EphA2 LBD (Homo sapiens, UniProt P29317)
T1 construct: fused on or other part: Minimal biotinylation for capture on Neutravidin (doxazosin run); amine coupling for the other compounds
Experiment: Surface Plasmon Resonance binding analysis
Conditions: SPR, recombinant LBD of EphA2; read-out: dissociation constant (KD)
Description: Binding analysis was carried out using standard biosensor chips and the […] Dual Channel SPR System (Reichert Life Sciences, Depew, N.Y.). The extracellular domain (ECD) of EphA2 was coupled to the chip by standard amine coupling using 1-ethyl-3-(3-dimethylaminopropyl) carbodiimide (EDC) and N-hydroxysuccinimide (NHS), followed by ethanolamine wash. In the case of doxazosin, Neutravidin was coupled to the chip, followed by ethanolamine wash and addition of minimally biotinylated EphA2 ECD to properly orient the protein. Different concentrations of dobutamine, labetalol, and doxazosin in running buffer (PBS, 0.05% Tween-20, 1% DMSO) were flown over the chip at a rate of […] and binding analyzed in real-time. After approximately 60 seconds, running buffer was flown over the chip to dissociate the compounds from the coupled protein (downward slope of curve). Binding data were analyzed and KD values determined using Clamp software (BioLogic Software Pty Ltd).

T1 sequence (P29317 28-206 limits assumed): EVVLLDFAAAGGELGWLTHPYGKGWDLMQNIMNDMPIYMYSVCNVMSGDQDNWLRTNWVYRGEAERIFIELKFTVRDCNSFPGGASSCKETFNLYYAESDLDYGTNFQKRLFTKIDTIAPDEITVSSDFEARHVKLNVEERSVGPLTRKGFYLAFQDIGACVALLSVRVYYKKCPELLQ

Row | Compound | Kd [µM]
1 | CC(CCc1ccccc1)NCC(O)c1ccc(O)c(C(N)=O)c1 (centres unmarked) [labetalol] | 440
2 | CC(CCc1ccc(O)cc1)NCCc1ccc(O)c(O)c1 (centres unmarked) [dobutamine] | 1500
